Paper PMC9779606, “Synthesis, Structural Characterization and Biological Activity Evaluation of Novel Cu(II) Complexes with 3-(trifluoromethyl)phenylthiourea Derivatives” (International Journal of Molecular Sciences, 2022)
Where two headings read alike, the source gives them in different places.

Legend:
[1] = tested on: M. tuberculosis Spec. 192; experiment: Tuberculostatic activity, Microplate Alamar Blue Assay (MABA); assay type: cell-based, Mycobacterium tuberculosis; conditions: M. tuberculosis Spec. 192, patient isolate fully sensitive to tuberculostatics, MABA
[2] = tested on: HaCaT (immortalized human keratinocytes); experiment: Cytotoxicity, MTT assay; assay type: cell-based; conditions: normal cells, 72 h, mean SD
Protocol: MTT assay was performed as previously described. Experiments were repeated three times. […] Decreased relative MTT level means decreased cell viability.

[3] = tested on: methicillin-resistant Staphylococci (MRSA, MRSE); conditions: for MIC level against hospital staphylococcal strains: all hospital staphylococcal strains, Table 5
S. aureus 537 = experiment: MIC, hospital methicillin-resistant strains (MRSA); conditions: hospital MRSA strain S. aureus 537
S. aureus 567 = experiment: MIC, hospital methicillin-resistant strains (MRSA); conditions: hospital MRSA strain S. aureus 567
S. aureus 568 = experiment: MIC, hospital methicillin-resistant strains (MRSA); conditions: hospital MRSA strain S. aureus 568
S. aureus 573 = experiment: MIC, hospital methicillin-resistant strains (MRSA); conditions: hospital MRSA strain S. aureus 573
S. aureus NCTC 4163 = experiment: MIC, twofold serial microdilution, standard strains; conditions: S. aureus NCTC 4163, standard strain
S. aureus 586 = experiment: MIC, hospital methicillin-resistant strains (MRSA); conditions: hospital MRSA strain S. aureus 586
S. aureus 495 = experiment: MIC, hospital methicillin-resistant strains (MRSA); conditions: hospital MRSA strain S. aureus 495
S. aureus 496 = experiment: MIC, hospital methicillin-resistant strains (MRSA); conditions: hospital MRSA strain S. aureus 496
S. aureus 497 = experiment: MIC, hospital methicillin-resistant strains (MRSA); conditions: hospital MRSA strain S. aureus 497
S. aureus 514 = experiment: MIC, hospital methicillin-resistant strains (MRSA); conditions: hospital MRSA strain S. aureus 514
S. aureus 522 = experiment: MIC, hospital methicillin-resistant strains (MRSA); conditions: hospital MRSA strain S. aureus 522
S. aureus 481 = experiment: MIC, hospital methicillin-resistant strains (MRSA); conditions: hospital MRSA strain S. aureus 481
S. aureus ATCC 25923 = experiment: MIC, twofold serial microdilution, standard strains; conditions: S. aureus ATCC 25923, standard strain
S. epidermidis 424 = experiment: MIC, hospital methicillin-resistant strains (MRSE); conditions: hospital MRSE strain S. epidermidis 424
S. epidermidis 469 = experiment: MIC, hospital methicillin-resistant strains (MRSE); conditions: hospital MRSE strain S. epidermidis 469
S. epidermidis 471 = experiment: MIC, hospital methicillin-resistant strains (MRSE); conditions: hospital MRSE strain S. epidermidis 471
S. epidermidis 510 = experiment: MIC, hospital methicillin-resistant strains (MRSE); conditions: hospital MRSE strain S. epidermidis 510
S. epidermidis 515 = experiment: MIC, hospital methicillin-resistant strains (MRSE); conditions: hospital MRSE strain S. epidermidis 515
S. epidermidis 432 = experiment: MIC, hospital methicillin-resistant strains (MRSE); conditions: hospital MRSE strain S. epidermidis 432
S. epidermidis 435 = experiment: MIC, hospital methicillin-resistant strains (MRSE); conditions: hospital MRSE strain S. epidermidis 435
S. aureus ATCC 6538 = experiment: MIC, twofold serial microdilution, standard strains; conditions: S. aureus ATCC 6538, standard strain
S. epidermidis 437 = experiment: MIC, hospital methicillin-resistant strains (MRSE); conditions: hospital MRSE strain S. epidermidis 437
S. epidermidis 438 = experiment: MIC, hospital methicillin-resistant strains (MRSE); conditions: hospital MRSE strain S. epidermidis 438
S. epidermidis 513 = experiment: MIC, hospital methicillin-resistant strains (MRSE); conditions: hospital MRSE strain S. epidermidis 513
S. aureus ATCC 29213 = experiment: MIC, twofold serial microdilution, standard strains; conditions: S. aureus ATCC 29213, standard strain
[4] = tested on: S. epidermidis ATCC 12228; experiment: as above; conditions: S. epidermidis ATCC 12228, standard strain
E. coli ATCC 25922 = experiment: as above; conditions: E. coli ATCC 25922, standard strain
P. aeruginosa ATCC 15442 = experiment: as above; conditions: P. aeruginosa ATCC 15442, standard strain
P. aeruginosa ATCC 27853 = experiment: as above; conditions: P. aeruginosa ATCC 27853, standard strain
C. albicans ATCC 10231 = experiment: MIC, twofold serial microdilution, standard fungal strains; conditions: C. albicans ATCC 10231, standard strain
C. albicans ATCC 90028 = experiment: as above; conditions: C. albicans ATCC 90028, standard strain

| Compound | MIC [1] [mg/L] | IC50 [2] [µM] | MIC (S. aureus 537) [mg/L] | MIC (S. aureus 567) [mg/L] | MIC (S. aureus 568) [mg/L] | MIC (S. aureus 573) [mg/L] | MIC (S. aureus NCTC 4163) [mg/L] | MIC (S. aureus 586) [mg/L] | MIC (S. aureus 495) [mg/L] | MIC (S. aureus 496) [mg/L] | MIC (S. aureus 497) [mg/L] | MIC (S. aureus 514) [mg/L] | MIC (S. aureus 522) [mg/L] | MIC (S. aureus 481) [mg/L] | MIC (S. aureus ATCC 25923) [mg/L] | MIC (S. epidermidis 424) [mg/L] | MIC (S. epidermidis 469) [mg/L] | MIC (S. epidermidis 471) [mg/L] | MIC (S. epidermidis 510) [mg/L] | MIC (S. epidermidis 515) [mg/L] | other results |
| --- | --- | --- | --- | --- | --- | --- | --- | --- | --- | --- | --- | --- | --- | --- | --- | --- | --- | --- | --- | --- | --- |
| FC(F)(F)c1cccc([N-]C(=S)NCCc2ccccc2)c1.FC(F)(F)c1cccc([N-]C(=S)NCCc2ccccc2)c1.O.[Cu+2] [Cu1, Copper(II) Complex with 1-(2-phenylethyl)-3-[3-(trifluoromethyl)phenyl]thiourea] | 16 | 421 ± 5.2 | 64 | 64 | 64 | 64 | 64 | 64 | 64 | 64 | 64 | 64 | 64 | 64 | 64 | 128 | 64 | 64 | 64 | 128 | MIC level against hospital staphylococcal strains [3]: 8 to 128 mg/L; MIC (S. epidermidis 432): 64 mg/L; MIC (S. epidermidis 435): 64 mg/L; MIC (S. aureus ATCC 6538): 64 mg/L; MIC (S. epidermidis 437): 64 mg/L; MIC (S. epidermidis 438): 128 mg/L; MIC (S. epidermidis 513): 64 mg/L; MIC (S. aureus ATCC 29213): 64 mg/L; MIC [4]: 64 mg/L; MIC (E. coli ATCC 25922): ≥256 mg/L; MIC (P. aeruginosa ATCC 15442): 128 mg/L; MIC (P. aeruginosa ATCC 27853): 128 mg/L; MIC (C. albicans ATCC 10231): 128 mg/L; MIC (C. albicans ATCC 90028): 128 mg/L |
| O.O=[N+]([O-])c1cc(NC(=S)[N-]c2cccc(C(F)(F)F)c2)ccc1Cl.O=[N+]([O-])c1cc(NC(=S)[N-]c2cccc(C(F)(F)F)c2)ccc1Cl.[Cu+2] [Cu5, Copper(II) Complex with 1-(4-chloro-3-nitrophenyl)-3-[3-(trifluoromethyl)phenyl]thiourea] | 4 | 134 ± 2.9 | 4 | 2 | 2 | 2 | 4 | 4 | 2 | 2 | 2 | 2 | 2 | 2 | 4 | 4 | 4 | 4 | 4 | 4 | MIC, methicillin-resistant Staphylococci ([3]; 19 strains (above half) of tested hospital Staphylococci): 2 mg/L; MIC, methicillin-resistant Staphylococci ([3]; S. aureus 537, 585, and 586 strains and half of the S. epidermidis isolates): 4 mg/L; MIC (S. epidermidis 432): 2 mg/L; MIC (S. epidermidis 435): 2 mg/L; MIC (S. aureus ATCC 6538): 4 mg/L; MIC (S. epidermidis 437): 2 mg/L; MIC (S. epidermidis 438): 2 mg/L; MIC (S. epidermidis 513): 2 mg/L; MIC (S. aureus ATCC 29213): 4 mg/L; MIC [4]: 4 mg/L; MIC (E. coli ATCC 25922): 128 mg/L; MIC (P. aeruginosa ATCC 15442): 128 mg/L; MIC (P. aeruginosa ATCC 27853): >256 mg/L; MIC (C. albicans ATCC 10231): 128 mg/L; MIC (C. albicans ATCC 90028): 128 mg/L |
| FC(F)(F)c1cccc([N-]C(=S)NCc2ccccc2)c1.FC(F)(F)c1cccc([N-]C(=S)NCc2ccccc2)c1.[Cu+2] [Cu3, Copper(II) Complex with 1-benzyl-3-[3-(trifluoromethyl)phenyl]thiourea] | 16 | 65 ± 4.7 | 64 | 64 | 64 | 64 | 64 | 64 | 64 | 64 | 64 | 64 | 64 | 64 | 64 | 64 | 64 | 64 | 64 | 64 | MIC level against hospital staphylococcal strains [3]: 8 to 128 mg/L; MIC (S. epidermidis 432): 64 mg/L; MIC (S. epidermidis 435): 64 mg/L; MIC (S. aureus ATCC 6538): 64 mg/L; MIC (S. epidermidis 437): 64 mg/L; MIC (S. epidermidis 438): 64 mg/L; MIC (S. epidermidis 513): 64 mg/L; MIC (S. aureus ATCC 29213): 64 mg/L; MIC [4]: 64 mg/L; MIC (E. coli ATCC 25922): ≥256 mg/L; MIC (P. aeruginosa ATCC 15442): ≥256 mg/L; MIC (P. aeruginosa ATCC 27853): ≥256 mg/L; MIC (C. albicans ATCC 10231): 32 mg/L; MIC (C. albicans ATCC 90028): 32 mg/L |
